From patent publication US12577234B2, “Antagonists of the muscarinic acetylcholine receptor M4” (Vanderbilt University, priority 2017, dated 2026)

Molecular target: T1, human mAChR M4 (Homo sapiens, UniProt P08173)
T1 construct: expressed in transfected cells; host or cells: CHO-K1 (ATCC), stably co-expressing chimeric G protein Gqi5
T1 sequence (P08173 1-479): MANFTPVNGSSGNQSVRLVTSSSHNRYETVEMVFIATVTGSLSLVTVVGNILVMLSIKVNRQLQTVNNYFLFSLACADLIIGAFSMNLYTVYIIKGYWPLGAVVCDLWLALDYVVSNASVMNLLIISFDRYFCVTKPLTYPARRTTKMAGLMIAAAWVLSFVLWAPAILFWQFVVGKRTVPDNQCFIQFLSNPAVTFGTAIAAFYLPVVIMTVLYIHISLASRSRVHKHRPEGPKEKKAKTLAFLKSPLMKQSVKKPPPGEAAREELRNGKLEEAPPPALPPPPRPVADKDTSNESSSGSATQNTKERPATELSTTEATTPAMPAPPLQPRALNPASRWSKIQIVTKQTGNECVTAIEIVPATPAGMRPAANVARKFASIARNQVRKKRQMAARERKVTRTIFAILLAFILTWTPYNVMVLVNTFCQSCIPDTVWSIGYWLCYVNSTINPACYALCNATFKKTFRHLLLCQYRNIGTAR
Experiment: mAChR M4 cell-based functional assay (calcium mobilization, EC80 acetylcholine), human M4
Details: for IC50: M4/Gqi5/CHO-K1 cells, decrease of EC80 acetylcholine response; for Emin: human M4, % ACh maximum at 30 μM
Summary of the method: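 CHO-K1 cells stably expressing human M4 with chimeric Gqi5; intracellular calcium rise read on FDSS as fluorescence static ratio at 1 Hz. Compounds in 10-point 1:3 dilution series; IC50 taken as concentration-dependent decrease of the EC80 acetylcholine response, four-parameter logistic fit.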

Compound | Human M4 Emin (Table 10) | IC50 (Table 10) | IC50 (Table 9) | Emin (Table 9)
Cc1cnn(C)c1-c1ccc(NC(=O)[C@@H]2C[C@@H]3CN(CCC(C)(C)C)C[C@@H]3C2)nn1 [Compound 144, (3aR,5r,6aS)-2-(3,3-dimethylbutyl)-N-[6-(2,4-dimethylpyrazol-3-yl)pyridazin-3-yl]-3,3a,4,5,6,6a-hexahydro-1H-cyclopenta[c]pyrrole-5-carboxamide] | 5% | 405 nM |  | 
Cc1nn(C)cc1-c1cnc(N[C@H]2C[C@@H]3CN(CC4CC5C=CC4C5)C[C@@H]3C2)cn1 (stereo partly drawn) [Compound 154, (3aR,5s,6aS)-2-(5-bicyclo[2.2.1]hept-2-enylmethyl)-N-[5-(1,3-dimethylpyrazol-4-yl)pyrazin-2-yl]-3,3a,4,5,6,6a-hexahydro-1H-cyclopenta[c]pyrrol-5-amine] | 4% | 30.8 nM |  | 
CCn1ccc(-c2ccc(N[C@H]3C[C@@H]4CN(CC5CCOCC5)C[C@@H]4C3)nn2)n1 [Compound 228, (3aR,5s,6aS)-N-[6-(1-ethylpyrazol-3-yl)pyridazin-3-yl]-2-(tetrahydropyran-4-ylmethyl)-3,3a,4,5,6,6a-hexahydro-1H-cyclopenta[c]pyrrol-5-amine] | 28% | 38 nM |  | 
Fc1ccc(Cl)c(-c2ccc(OCC3C[C@@H]4CN(CC56CC7CC(CC(C7)C5)C6)C[C@@H]4C3)nn2)c1 (stereo partly drawn) [Compound 107, (3aR,6aS)-2-(1-adamantylmethyl)-5-[[6-(2-chloro-5-fluoro-phenyl)pyridazin-3-yl]oxymethyl]-3,3a,4,5,6,6a-hexahydro-1H-cyclopenta[c]pyrrole] |  |  | 1090 nM | 5.03%
Fc1ccc(Cl)c(-c2ccc(OCC3C[C@@H]4CN(Cc5ccccn5)C[C@@H]4C3)nn2)c1 (stereo partly drawn) [Compound 117, (3aR,6aS)-5-[[6-(2-chloro-5-fluoro-phenyl)pyridazin-3-yl]oxymethyl]-2-(2-pyridylmethyl)-3,3a,4,5,6,6a-hexahydro-1H-cyclopenta[c]pyrrole] |  |  | 1460 nM | 4.82%
CCC(C)CN1C[C@H]2CC(COc3ccc(-c4c(C)cnn4C)nn3)C[C@H]2C1 (stereo partly drawn) [Compound 81, (3aR,6aS)-5-[[6-(2,4-dimethylpyrazol-3-yl)pyridazin-3-yl]oxymethyl]-2-(2-methylbutyl)-3,3a,4,5,6,6a-hexahydro-1H-cyclopenta[c]pyrrole] |  |  | 904 nM | 4.54%
Cc1cccnc1CN1C[C@H]2C[C@H](Nc3ccc(-c4cn(C)nc4C)nn3)C[C@H]2C1 [compound 11] |  |  | 1.4 nM | 
Cc1cnn(C)c1-c1ccc(NC[C@H]2C[C@@H]3CN(CC4CCOCC4)C[C@@H]3C2)nn1 [Compound 66, N-[[(3aR,5s,6aS)-2-(tetrahydropyran-4-ylmethyl)-3,3a,4,5,6,6a-hexahydro-1H-cyclopenta[c]pyrrol-5-yl]methyl]-6-(2,4-dimethylpyrazol-3-yl)pyridazin-3-amine] |  |  | 3790 nM | 17.2%
CC(C)(C)CCN1C[C@H]2C[C@H](CNc3ccc(-c4cc(F)ccc4Cl)nn3)C[C@H]2C1 [Compound 70, N-[[(3aR,5s,6aS)-2-(3,3-dimethylbutyl)-3,3a,4,5,6,6a-hexahydro-1H-cyclopenta[c]pyrrol-5-yl]methyl]-6-(2-chloro-5-fluoro-phenyl)pyridazin-3-amine] |  |  | 19.2 nM | 2.64%
Cc1nn(C)cc1-c1ccc(OCC2C[C@@H]3CN(CC4CCCOC4)C[C@@H]3C2)nn1 (stereo partly drawn) [Compound 99, (3aR,6aS)-5-[[6-(1,3-dimethylpyrazol-4-yl)pyridazin-3-yl]oxymethyl]-2-(tetrahydropyran-3-ylmethyl)-3,3a,4,5,6,6a-hexahydro-1H-cyclopenta[c]pyrrole] |  |  | 2490 nM | 7.75%
Cc1cnn(C)c1-c1ccc(N[C@H]2C[C@@H]3CN(CCC(C)(C)C)C[C@@H]3C2)nn1 [Compound 1, (3aR,5s,6aS)-2-(3,3-Dimethylbutyl)-N-[6-(2,4-dimethylpyrazol-3-yl)pyridazin-3-yl]-3,3a,4,5,6,6a-hexahydro-1H-cyclopenta[c]pyrrol-5-amine] |  |  | 8 nM | 13.1%
Cc1nn(C)cc1-c1ccc(N[C@H]2C[C@@H]3CN(CC4CC5C=CC4C5)C[C@@H]3C2)nc1 (stereo partly drawn) [Compound 151, (3aR,5s,6aS)-2-(5-bicyclo[2.2.1]hept-2-enylmethyl)-N-[5-(1,3-dimethylpyrazol-4-yl)-2-pyridyl]-3,3a,4,5,6,6a-hexahydro-1H-cyclopenta[c]pyrrol-5-amine] | 3% | 77.3 nM |  | 
Cc1cnn(C)c1-c1ccc(N[C@H]2C[C@@H]3CN(CC4CC5C=CC4C5)C[C@@H]3C2)nn1 (stereo partly drawn) [Compound 17, (3aR,5s,6aS)-2-(5-bicyclo[2.2.1]hept-2-enylmethyl)-N-[6-(2,4-dimethylpyrazol-3-yl)pyridazin-3-yl]-3,3a,4,5,6,6a-hexahydro-1H-cyclopenta[c]pyrrol-5-amine] |  |  | 0.8 nM | 6.3%
Cc1nn(C)cc1-c1ccc(OCC2C[C@@H]3CN(CC45CC6CC(CC(C6)C4)C5)C[C@@H]3C2)nn1 (stereo partly drawn) [Compound 93, (3aR,6aS)-2-(1-adamantylmethyl)-5-[[6-(1,3-dimethylpyrazol-4-yl)pyridazin-3-yl]oxymethyl]-3,3a,4,5,6,6a-hexahydro-1H-cyclopenta[c]pyrrole] |  |  | 82.1 nM | 4.05%
Cc1cnn(C)c1-c1ccc(OCC2C[C@@H]3CN(CC4CCCOC4)C[C@@H]3C2)nn1 (stereo partly drawn) [Compound 85, (3aR,6aS)-5-[[6-(2,4-dimethylpyrazol-3-yl)pyridazin-3-yl]oxymethyl]-2-(tetrahydropyran-3-ylmethyl)-3,3a,4,5,6,6a-hexahydro-1H-cyclopenta[c]pyrrole] |  |  | 4600 nM | 14.2%
Cc1cnn(C)c1-c1ccc(NC[C@H]2C[C@@H]3CN(CC4CCCOC4)C[C@@H]3C2)nn1 (stereo partly drawn) [Compound 67, N-[[(3aR,5s,6aS)-2-(tetrahydropyran-3-ylmethyl)-3,3a,4,5,6,6a-hexahydro-1H-cyclopenta[c]pyrrol-5-yl]methyl]-6-(2,4-dimethylpyrazol-3-yl)pyridazin-3-amine] |  |  | 5310 nM | 17.2%
Fc1ccc(Cl)c(-c2ccc(O[C@@H]3C[C@@H]4CN(CC5CCCOC5)C[C@@H]4C3)nn2)c1 (stereo partly drawn) [Compound 57, (3aR,5r,6aS)-5-[6-(2-chloro-5-fluoro-phenyl)pyridazin-3-yl]oxy-2-(tetrahydropyran-3-ylmethyl)-3,3a,4,5,6,6a-hexahydro-1H-cyclopenta[c]pyrrole] |  |  | 3070 nM | 6.99%
Cc1cnn(C)c1-c1ccc(OCC2C[C@@H]3CN(Cc4ccc(F)cc4)C[C@@H]3C2)nn1 (stereo partly drawn) [Compound 88, (3R,6aS)-5-[[6-(2,4-dimethylpyrazol-3-yl)pyridazin-3-yl]oxymethyl]-2-[(4-fluorophenyl)methyl]-3,3a,4,5,6,6a-hexahydro-1H-cyclopenta[c]pyrrole] |  |  | 4190 nM | 9.57%
Cc1noc(C)c1-c1ccc(N[C@H]2C[C@@H]3CN(CCC(C)(C)C)C[C@@H]3C2)nn1 [Compound 142, (3aR,5s,6aS)-2-(3,3-dimethylbutyl)-N-[6-(3,5-dimethylisoxazol-4-yl)pyridazin-3-yl]-3,3a,4,5,6,6a-hexahydro-1H-cyclopenta[c]pyrrol-5-amine] | 6% | 1.82 nM |  | 
